From patent publication US11951269B2, “Drug-coated medical devices” (Medtronic Vascular, Inc., priority 2018, dated 2024)

Columns and labels:
[1] = In vivo porcine model: coated balloon deployed in femoral arteries, drug concentration in tissue; settings: for concentration at 1 day / concentration at 28 days: pig, femoral artery tissue, porcine femoral arteries, n=18, read-out: median concentration in the tissue; for concentration at 28 days: after 28 days; for vessels in which drug was detectable: porcine
Procedure: In vivo studies are also performed. […] After 1 day, the median sirolimus concentration in the tissue is about 0.62 μg/g, and after 28 days the median concentration is about 0.07 μg/g (n=18).

[2] = Ex-vivo model: coated balloon inflated against bovine carotid artery in simulated flow loop, drug by HPLC; settings: for tissue concentration average: bovine carotid artery ex vivo, n=5
Procedure: The coated balloons were inflated against tissue in an ex-vivo model. Briefly, the model included a bovine carotid artery mounted in a simulated flow loop comprising appropriately sized tubing. The system was maintained at 37° C. A standard hemostasis valve and 8 Fr introducer sheath are used to introduce the coated balloon into the tubing, the balloon is tracked through the sheath and tubing into the bovine carotid artery, and the balloon is deployed (inflated to approximately 1.1 B.A.R. and held for 60 s) against the bovine carotid artery tissue. The tissue and balloon are removed for analysis. […] Briefly, the amount of drug was measured by using HPLC of extracted solutions from testing specimens, such as utilizing a solvent to solubilize and remove all remaining drug from the balloon for analysis.

[3] = Solubility of DEX in various solvents; type: physicochemical

concentration at 1 day ([1]; after 1 day) [ng/g]	concentration at 28 days [1] [ng/g]	tissue concentration average [2]	drug transferred to the tissue ([2]; sirolimus/urea first layer, DEX/urea second layer, bovine carotid artery, 37° C., inflated 60 s)	vessels in which drug was detectable ([1]; after 1 day)	vessels in which drug was detectable ([1]; day 28)	DEX solubility ([3]; solvent Acetone) [mg\mL]	DEX solubility ([3]; solvent Acetonitrile) [mg\mL]	DEX solubility ([3]; solvent Ethanol) [mg\mL]	DEX solubility ([3]; solvent Methanol) [mg\mL]	DEX solubility ([3]; solvent THF) [mg\mL]	SMILES
~620	~70	about 25.9 μg sirolimus/g of tissue	About 1.7%								CO[C@H]1C[C@@H]2CC[C@@H](C)[C@@](O)(O2)C(=O)C(=O)N2CCCC[C@H]2C(=O)O[C@H]([C@H](C)C[C@@H]2CC[C@@H](O)[C@H](OC)C2)CC(=O)[C@H](C)/C=C(\C)[C@@H](O)[C@@H](OC)C(=O)[C@H](C)C[C@H](C)/C=C/C=C/C=C/1C [sirolimus]
~0.525	~0.5	about 22.6 μg DEX/g of tissue		four of six vessels	two of six vessels	12	10	8	15	30	C[C@@H]1C[C@H]2[C@@H]3CCC4=CC(=O)C=C[C@]4(C)[C@@]3(F)[C@@H](O)C[C@]2(C)[C@@]1(O)C(=O)CO [DEX, dexamethasone]
